Test results from article PMC7155171, “Probing the Open Global Health Chemical Diversity Library for Multistage-Active Starting Points for Next-Generation Antimalarials” (ACS Infectious Diseases, 2020).
Like-named read-outs stand apart in the source and are kept apart here.

System: P. falciparum Dd2 (PfLuc) line expressing firefly luciferase, asexual blood stage
Assay: microbe, parasite or virus in culture
Type: cell-based, Plasmodium falciparum
[1] = Plasmodium falciparum, DD2, 8-pt dose response, 96hr, read-out: P. falciparum Luciferase ABS 8-pt Reconfirmation Dose Response (96hr): IC50
[2] = Plasmodium falciparum, DD2, 8-pt dose response, 96hr, read-out: P. falciparum Luciferase ABS 8-pt Reconfirmation Dose Response (96hr): Maximum inhibition (%)
[3] = Plasmodium falciparum, DD2, read-out: CDD P. falciparum Luciferase ABS 11-pt Reconfirmation Dose Response (48hr): IC50 (μM), 11-pt dose response, 48hr
[4] = Plasmodium falciparum, DD2, 8-pt dose response, 96hr, read-out: CDD P. falciparum Luciferase ABS 8-pt Reconfirmation Dose Response (96hr): IC50
[5] = Plasmodium falciparum, DD2, 8-pt dose response, 96hr, read-out: CDD P. falciparum Luciferase ABS 8-pt Reconfirmation Dose Response (96hr): Maximum inhibition (%)
[6] = Plasmodium falciparum, DD2, 11-pt dose response, 48hr, read-out: CDD P. falciparum Luciferase ABS 11-pt Reconfirmation Dose Response (48hr): Maximum inhibition (%)
[7] = Plasmodium falciparum, DD2, 11-pt dose response, 96hr, read-out: CDD P. falciparum Luciferase ABS 11-pt Reconfirmation Dose Response (96hr): IC50
[8] = Plasmodium falciparum, DD2, 11-pt dose response, 96hr, read-out: CDD P. falciparum Luciferase ABS 11-pt Reconfirmation Dose Response (96hr): Maximum inhibition (%)
[9] = Plasmodium falciparum, DD2, read-out: P. falciparum Luciferase ABS 11-pt Reconfirmation Dose Response (48hr): IC50, 11-pt dose response, 48hr
[10] = Plasmodium falciparum, DD2, 11-pt dose response, 48hr, read-out: P. falciparum Luciferase ABS 11-pt Reconfirmation Dose Response (48hr): Maximum inhibition (%)
[11] = Plasmodium falciparum, DD2, 11-pt dose response, 96hr, read-out: P. falciparum Luciferase ABS 11-pt Reconfirmation Dose Response (96hr): IC50
[12] = Plasmodium falciparum, DD2, 11-pt dose response, 96hr, read-out: P. falciparum Luciferase ABS 11-pt Reconfirmation Dose Response (96hr): Maximum inhibition (%)

Compound | IC50 [1] | Emax [2] | also measured
CN1CCn2c(-c3cccc(F)c3)cnc2C12CCN(CC1CC1)CC2 [DDD01030549] | 1.2 µM | 84.4% | –
O=C([C@@H]1Cc2[nH]cnc2CN1Cc1cc2ccccc2o1)N1CCCC1 [DDD01024952] | 1.42 µM | 91% | –
Cn1cc(CN2CCCC(CCc3ccc(F)cc3F)C2)cn1 (stereo not shown) [DDD01251707] | 1.69 µM | 81% | –
CCC[C@H]1CN(c2nc(CO)cs2)C[C@@H]1NC(=O)C1(COC)CC1 [DDD01253377] | 1.81 µM | 80.7% | –
CC(C)[C@H](CO)Nc1nccc(-c2c[nH]nc2-c2ccncc2)n1 [DDD01235869] | 1.69 µM | 82% | –
CN(C)CCN(Cc1cccnc1)C(=O)c1ccn(-c2ccccc2)n1 [DDD01066387] | 1.43 µM | 81.1% | –
CNS(=O)(=O)c1cccc(C(C)NCc2ccccc2OC)c1 (stereo not shown) [DDD01069885] | 1.18 µM | 80.1% | –
COc1ccc2[nH]c(CNc3cc(C4CCNCC4)nc(C)n3)cc2c1 [DDD01249030] | 1.88 µM | 88% | –
C=Cc1cccc(CN2C[C@@H](CN(C)CC)[C@@H](CO)C2)c1 [DDD01250237] | 1.27 µM | 83.3% | –
Doxycycline [reference compound] | – | – | IC50 (96 h incubation, Dd2 luciferase, read-out: 96 hour Pfluc IC50): 0.55 ± 0.2 µM; IC50 (read-out: 48 hour Pfluc IC50, 48 h incubation, Dd2 luciferase): 7.18 ± 1.59 µM
CC(NCCc1nccn1Cc1ccccc1)c1cccs1 (stereo not shown) [DDD01065609] | 1.39 µM | 85.7% | –
CN(C[C@H]1CN2CC[C@H]1C[C@@H]2CNC(=O)c1ccco1)c1ccccc1 [DDD01024849] | 1.76 µM | 83.2% | –
CC(C)n1ncc2c1NC(=O)CC21C(=O)Nc2c(Cl)ccc(Cl)c21 (stereo not shown) [DDD01027128] | 1.59 µM | 94.1% | –
CCC(NCc1cccc(Cl)c1)c1ccccc1OCC(=O)NC (stereo not shown) [DDD01075652] | 1.31 µM | 76.5% | –
c1ccc(NC[C@@H]2CCC[C@@H]3CN(Cc4cccnc4)C[C@@H]32)nc1 [DDD01032334] | 1.72 µM | 81.5% | –
CCC(CC)(CN)NC(C)c1ccccc1 (stereo not shown) [DDD01061915] | – | – | IC50 [3]: > 12.5 µM; IC50 [4]: 1.02 µM; Emax [5]: 85.9%; Emax [6]: 49.2%; IC50 [7]: > 1.39 µM; Emax [8]: 87.7%
CCc1ccc(-c2cc(C(F)(F)F)nc(N3CCC(N)CC3)n2)cc1 [DDD01037626] | 1.72 µM | 93.8% | IC50 [9]: 1.86 µM; Emax [10]: 98.9%; IC50 [11]: 0.828 µM; Emax [12]: 100%
CCN(C)CC1CCN(S(=O)(=O)c2cc(C)c(F)cc2Cl)C1 (stereo not shown) [DDD01067996] | 1.72 µM | 86.1% | –
Cc1ccc(CN2CCCC3(CCN(Cc4ccoc4)CC3)C2)cc1 [DDD01031609] | 1.16 µM | 88.7% | IC50 [9]: 3.17 µM; Emax [10]: 88.7%; IC50 [11]: 0.742 µM; Emax [12]: 98.3%
O=C(CCN1CCCC(CO)(CC2CC2)C1)NCc1cccc(Cl)c1 (stereo not shown) [DDD01250518] | 1.83 µM | 81.8% | –

Compound | IC50 [1] | Emax [2] | also measured
C[C@@H]1CC[C@H]2[C@@H](C)C(=O)O[C@@H]3O[C@@]4(C)CC[C@@H]1[C@]32OO4 [artemisinin, reference compound] | – | – | inhibition at 10 µM (Plasmodium falciparum, DD2, 96 h, control at 10 μM, read-out: mean inhibition of positive control in ABS primary screen): 99.6 ± 1.03%
COc1ccccc1C(C)(C)NCc1ccc(C)o1 [DDD01074244] | 1.77 µM | 82.7% | –
Cc1cc(F)ccc1CN1CCC(O)(CN2CCCCC2)C1 (stereo not shown) [DDD01258113] | 1.22 µM | 83.7% | –
Fc1ccc2c(C3=CCN(Cc4nnc(C5CCC5)o4)CC3)c[nH]c2c1 [DDD01071325] | 1.7 µM | 88.7% | –
CN1CC[C@H](N(Cc2ccccc2)CC2CC2)C[C@H](O)C1 [DDD01026225] | 1.29 µM | 82% | –
Cc1nn(C)c(C)c1CCn1cncc1-c1ccc2c(c1)CC(C)N2C (stereo not shown) [DDD01056530] | 1.85 µM | 94.7% | –
CCCOc1ccccc1CN[C@@H]1CCC[C@H]1Cc1cc(C)no1 [DDD01060989] | 2.71 µM | 79.8% | –
CC(=O)N(c1ccc(C)cc1)c1nc(CN2CCCC(C)C2)cs1 (stereo not shown) [DDD01075341] | 1.83 µM | 86.4% | –
Cn1ccnc1C(O)(CCNCc1ccc(Cl)o1)C(F)(F)F (stereo not shown) [DDD01062848] | 2.81 µM | 78.7% | –
Fc1cnc(N2CCCC3(CCN(Cc4ccoc4)C3)C2)nc1 (stereo not shown) [DDD01084184] | 1.79 µM | 83.1% | –
Cc1cc(C)n(CCCn2cncc2-c2ccc3c(c2)CC(C)N3C)n1 (stereo not shown) [DDD01056528] | 1.7 µM | 94.8% | –
c1cnc(N2CCC3(CC2)CN(CC2CC2)c2ccccc23)nc1 [DDD01036239] | 1.74 µM | 90.6% | –
CC(O)CN1CCC(CN(C)Cc2cc(F)cc3cccnc23)CC1 (stereo not shown) [DDD01063726] | 1.33 µM | 92.8% | –
CN1CCC(N(C)C[C@H]2CC[C@@H](Cc3ccc4occc4c3)O2)CC1 [DDD01250070] | 1.57 µM | 82.8% | –
Cc1cnccc1CN1CC[C@H](Oc2cccc(F)c2)[C@@](C)(O)C1 [DDD01060866] | 1.79 µM | 91.8% | –
c1cncc(-c2ccc3c(c2)CCC32CCNCC2)c1 [DDD01031368] | 1.35 µM | 95.6% | –
FC1(F)CCN(Cc2cccnc2)CC12CCN(c1ccccc1)C2 (stereo not shown) [DDD01082961] | 1.65 µM | 91.5% | –
CN1CCCCC1c1ncc2c(n1)CCN(Cc1ccc(F)cc1)C2 (stereo not shown) [DDD01059924] | 1.65 µM | 84.5% | –
CCn1cncc1CN1CCN(CC2(c3ccc(C)cc3)CC2)CC1 [DDD01059073] | 1.26 µM | 85.6% | –
CN(C)CCn1nc(C2CCN(Cc3ccccc3)C2)c2cccnc21 (stereo not shown) [DDD01056665] | 1.99 µM | 70.9% | –

Compound | IC50 [1] | Emax [2] | also measured
CN1CCCC1CNC(=O)CCCOc1cccc(Br)c1 (stereo not shown) [DDD01297989] | 1.4 µM | 83.9% | –
COc1cccc(OC)c1CNC(Cc1ccsc1)c1ccc(C)cn1 (stereo not shown) [DDD01058770] | 1.56 µM | – | –
O=C(c1ccc(F)c(Cl)c1)N1C[C@H]2CC[C@@H](C1)N(Cc1ccccc1)C2 [DDD01257805] | 1.16 µM | 85.8% | IC50 [9]: 5.31 µM; Emax [10]: 91.8%; IC50 [11]: 2.39 µM; Emax [12]: 97.8%
Cc1c(C(=O)N2CCC(N3CCCCC3)CC2)n(C)c2ccc(Cl)cc12 [DDD01255900] | – | – | IC50 [3]: 3.56 µM; IC50 [4]: 1.11 µM; Emax [5]: 93.8%; Emax [6]: 96.3%; IC50 [7]: 1.7 µM; Emax [8]: 98.9%
Cc1ncc(CN(C)C2CCCN(CCc3ccccc3)C2)n1C (stereo not shown) [DDD01244648] | – | – | IC50 [3]: 6.24 µM; IC50 [4]: 0.88 µM; Emax [5]: 88.5%; Emax [6]: 55.1%; IC50 [7]: 1.78 µM; Emax [8]: 88.7%
COc1ccnc(CN2CCCC(CCc3ccccc3)C2)c1OC (stereo not shown) [DDD01250826] | 1.26 µM | 92.5% | IC50 [9]: 1.41 µM; Emax [10]: 93%; IC50 [11]: 0.447 µM; Emax [12]: 99.3%
COc1cccc(-n2ccc3nc(N4CCCC4)ncc3c2=O)c1 [DDD01034957] | 1.6 µM | 95.4% | IC50 [9]: > 4.16 µM; Emax [10]: 13.2%; IC50 [11]: 0.531 µM; Emax [12]: 98.6%
O=C(CCN1CCCC1c1cccc2c1OCCO2)N1CCCCC1 (stereo not shown) [DDD01070009] | – | – | IC50 [3]: 6.96 µM; IC50 [4]: 1.06 µM; Emax [5]: 80.3%; Emax [6]: 51%; IC50 [7]: 2.64 µM; Emax [8]: 84.9%
Cc1cn2c(n1)C(CNCC1=Cc3cc(Cl)ccc3OC1)CCC2 (stereo not shown) [DDD01073229] | 1.71 µM | – | –
Cc1cc(Cc2cccc(C(F)(F)F)c2)cc(C2CCCNC2)n1 (stereo not shown) [DDD01057885] | 1.24 µM | 92% | IC50 [9]: 4.53 µM; IC50 [11]: 0.958 µM; Emax [12]: 100%
O=C(Cn1ccc2ccc(Br)cc21)NC[C@@H]1CCCN2CCCC[C@H]12 [DDD01035644] | 2.57 µM | 81.8% | –
CCC(CNC(=O)CNC(C)=O)Oc1cccc(F)c1 (stereo not shown) [DDD01066100] | 2.09 µM | 83.9% | IC50 [9]: 6.31 µM; Emax [10]: 55.6%; IC50 [11]: 2.15 µM; Emax [12]: 83.4%
CCN1CCCC(CNC(=O)C2(c3cc(C)cc(C)c3)CCC2)C1 (stereo not shown) [DDD01296287] | 1.39 µM | – | –
CC(Nc1nc(-c2ccccc2)nc2c1CCNCC2)c1cccnc1 (stereo not shown) [DDD01244613] | 1.58 µM | 92.9% | –
CC(O)CN1CCC(CNCc2ccc(OC(F)(F)F)cc2)CC1 (stereo not shown) [DDD01297562] | 1.25 µM | 90.4% | –
CN(C(=O)c1ccon1)[C@@H]1CCC[C@@H](Oc2ccccc2)[C@@H]1O [DDD01059734] | 1.12 µM | 85.7% | –
CN(Cc1ncc(C(C)(C)C)o1)CC1CCCN1c1cccnn1 (stereo not shown) [DDD01301524] | 1.81 µM | – | –
c1cnnc(N2CCCC2CNc2ncnc3sccc23)c1 (stereo not shown) [DDD01299704] | 1.61 µM | 92.3% | –
